Laboratory results from article PMC4703368, “A Conserved Interaction between a C-Terminal Motif in Norovirus VPg and the HEAT-1 Domain of eIF4G Is Essential for Translation Initiation” (PLoS Pathogens, 2016).

Key:
His-eIF4GI HEAT-1 [1] = assay: cobalt affinity pull-down, GST-VPg C-terminal fusions as prey (Fig 4B-E); format: binding, human; details: for % binding (relative to WT) / Bait/Prey / Prey/Bait: Figure 4E; for % binding (relative to WT): ImageJ quantification; for Bait/Prey / Prey/Bait: band density ratio, ImageJ; for binding to His-eIF4GI HEAT-1 in cobalt pull-down: bait 2.6 µM, GST-VPg fusions 1.5 µM; for binding to His-eIF4GI HEAT-1 in cobalt pull-down / binding to His-eIF4GI HEAT-1, % of wild-type: 25 mM MES, 150 mM NaCl, pH 6.5; for binding to His-eIF4GI HEAT-1, % of wild-type: quantification of pull-down, Fig 4E
His-eIF4GI HEAT-1 [2] = assay: cobalt affinity pull-down, SDS PAGE band quantification; details: parent: est. 100; read off a plot
[3] = system: His-tagged MNV VPg(1–124); assay: cobalt affinity pull-down, eIF4GI HEAT-1 mutants as prey (Fig 5D-E)

In the case of R113A, the “% binding (relative to WT)” value (His-eIF4GI HEAT-1 [1]; repeat 1, 2014-07-24) is reported as 63.4705%, the Bait/Prey (His-eIF4GI HEAT-1 [1]; repeat 1, 2014-07-24) is reported as 4.285 and the Prey/Bait (His-eIF4GI HEAT-1 [1]; repeat 1, 2014-07-24) is reported as 0.2334. For the same substance, the “% binding (relative to WT)” value (His-eIF4GI HEAT-1 [1]; repeat 2, 2014-07-25) was 60.4116%, the Bait/Prey (His-eIF4GI HEAT-1 [1]; repeat 2, 2014-07-25) was 3.025 and the Prey/Bait (His-eIF4GI HEAT-1 [1]; repeat 2, 2014-07-25) was 0.3306. The “% binding (relative to WT)” value (His-eIF4GI HEAT-1 [1]; repeat 3, 2014-07-25) was 58.2069%, the Bait/Prey (His-eIF4GI HEAT-1 [1]; repeat 3, 2014-07-25) was 3.0762 and the Prey/Bait (His-eIF4GI HEAT-1 [1]; repeat 3, 2014-07-25) was 0.3251. For the same substance, the “% binding (relative to WT)” value (His-eIF4GI HEAT-1 [1]; repeat 4, 2014-07-31) was 76.2941%, the Bait/Prey (His-eIF4GI HEAT-1 [1]; repeat 4, 2014-07-31) was 2.643 and the Prey/Bait (His-eIF4GI HEAT-1 [1]; repeat 4, 2014-07-31) was 0.3784. The “binding to His-eIF4GI HEAT-1 in cobalt pull-down” value (“binding … in cobalt pull-down” for short) (His-eIF4GI HEAT-1 [1]) was “capable of binding eIF4GI HEAT-1” and the “binding to His-eIF4GI HEAT-1, % of wild-type” value (His-eIF4GI HEAT-1 [1]) was 60–80%.
D110A was tested, and the “% binding (relative to WT)” value (His-eIF4GI HEAT-1 [1]; repeat 1, 2014-07-24) was 71.5502%, the Bait/Prey (His-eIF4GI HEAT-1 [1]; repeat 1, 2014-07-24) was 3.801 and the Prey/Bait (His-eIF4GI HEAT-1 [1]; repeat 1, 2014-07-24) was 0.2631. The “% binding (relative to WT)” value (His-eIF4GI HEAT-1 [1]; repeat 2, 2014-07-25) was 69.0469%, the Bait/Prey (His-eIF4GI HEAT-1 [1]; repeat 2, 2014-07-25) was 2.646 and the Prey/Bait (His-eIF4GI HEAT-1 [1]; repeat 2, 2014-07-25) was 0.3779. The “% binding (relative to WT)” value (His-eIF4GI HEAT-1 [1]; repeat 3, 2014-07-25) was 77.4561%, the Bait/Prey (His-eIF4GI HEAT-1 [1]; repeat 3, 2014-07-25) was 2.312 and the Prey/Bait (His-eIF4GI HEAT-1 [1]; repeat 3, 2014-07-25) was 0.4326. The “% binding (relative to WT)” value (His-eIF4GI HEAT-1 [1]; repeat 4, 2014-07-31) was 83.3957%, the Bait/Prey (His-eIF4GI HEAT-1 [1]; repeat 4, 2014-07-31) was 2.418 and the Prey/Bait (His-eIF4GI HEAT-1 [1]; repeat 4, 2014-07-31) was 0.4136. The “binding … in cobalt pull-down” value (His-eIF4GI HEAT-1 [1]) was “capable of binding eIF4GI HEAT-1” and the “binding to His-eIF4GI HEAT-1, % of wild-type” value (His-eIF4GI HEAT-1 [1]) was 60–80%.
GST-MNV VPg(102–124) V115A was tested, and the percent of parent (% of WT (normalised OD ratio)) (His-eIF4GI HEAT-1 [2]) was 3.
GST-MNV VPg(102–124) F123A was tested, and the percent of parent (% of WT (normalised OD ratio)) (His-eIF4GI HEAT-1 [2]) was 6.
Substance GST-MNV VPg(102–124) R113A has a percent of parent (% of WT (normalised OD ratio)) (His-eIF4GI HEAT-1 [2]) of 64.
With GST-MNV VPg(102–124) D110A the percent of parent (% of WT (normalised OD ratio)) (His-eIF4GI HEAT-1 [2]) was 75.
Work on GST-MNV VPg(102–124) K120A yielded a percent of parent (% of WT (normalised OD ratio)) (His-eIF4GI HEAT-1 [2]) of 90.
For K120A, the “% binding (relative to WT)” value (His-eIF4GI HEAT-1 [1]; repeat 1, 2014-07-24) was 102.078%, the Bait/Prey (His-eIF4GI HEAT-1 [1]; repeat 1, 2014-07-24) was 2.664 and the Prey/Bait (His-eIF4GI HEAT-1 [1]; repeat 1, 2014-07-24) was 0.3754. The “% binding (relative to WT)” value (His-eIF4GI HEAT-1 [1]; repeat 2, 2014-07-25) was 80.9274%, the Bait/Prey (His-eIF4GI HEAT-1 [1]; repeat 2, 2014-07-25) was 2.258 and the Prey/Bait (His-eIF4GI HEAT-1 [1]; repeat 2, 2014-07-25) was 0.4429. The “% binding (relative to WT)” value (His-eIF4GI HEAT-1 [1]; repeat 3, 2014-07-25) was 85.5916%, the Bait/Prey (His-eIF4GI HEAT-1 [1]; repeat 3, 2014-07-25) was 2.092 and the Prey/Bait (His-eIF4GI HEAT-1 [1]; repeat 3, 2014-07-25) was 0.478. For the same substance, the “% binding (relative to WT)” value (His-eIF4GI HEAT-1 [1]; repeat 4, 2014-07-31) was 78.1139%, the Bait/Prey (His-eIF4GI HEAT-1 [1]; repeat 4, 2014-07-31) was 2.581 and the Prey/Bait (His-eIF4GI HEAT-1 [1]; repeat 4, 2014-07-31) was 0.3874. The “% binding (relative to WT)” value (His-eIF4GI HEAT-1 [1]; repeat 7, 2015-08-05) was 78.74%, the Bait/Prey (His-eIF4GI HEAT-1 [1]; repeat 7, 2015-08-05) was 4.118 and the Prey/Bait (His-eIF4GI HEAT-1 [1]; repeat 7, 2015-08-05) was 0.2428. The “binding … in cobalt pull-down” value (His-eIF4GI HEAT-1 [1]) was “appears to bind as effectively as the wild-type sequence”.
E913R was tested, and the “Relative density normalised to WT (%)” value ([3]; 150 mM NaCl, experiment 1) was 72.7%, the “Relative density normalised to WT (%)” value ([3]; 150 mM NaCl, experiment 2) was 89.6% and the “Relative density normalised to WT (%)” value ([3]; 150 mM NaCl, experiment 3) was 82.8%. The “Relative density normalised to WT (%)” value ([3]; 300 mM NaCl, experiment 1) was 49.0% and the “Relative density normalised to WT (%)” value ([3]; 300 mM NaCl, experiment 2) was 56.0%.
